# Source: BigSolDB 2.1
smiles,measurement,setting,value
O=C1OC(=O)[C@H]2[C@@H]1[C@@H]1C=C[C@H]2C1,solubility (mole fraction),"in 1,4-dioxane, 288.15 K",0.0718
same,solubility (mole fraction),"in 1,4-dioxane, 293.15 K",0.0836
same,solubility (mole fraction),"in 1,4-dioxane, 298.15 K",0.0939
same,solubility (mole fraction),"in 1,4-dioxane, 303.15 K",0.107
same,solubility (mole fraction),"in 1,4-dioxane, 308.15 K",0.123
same,solubility (mole fraction),"in 1,4-dioxane, 313.15 K",0.136
same,solubility (mole fraction),"in 1,4-dioxane, 318.15 K",0.154
same,solubility (mole fraction),"in 1,4-dioxane, 323.15 K",0.173
same,solubility (mole fraction),"in DMF, 278.15 K",0.0809
same,solubility (mole fraction),"in DMF, 283.15 K",0.0925
same,solubility (mole fraction),"in DMF, 288.15 K",0.106
same,solubility (mole fraction),"in DMF, 293.15 K",0.12
same,solubility (mole fraction),"in DMF, 298.15 K",0.135
same,solubility (mole fraction),"in DMF, 303.15 K",0.152
same,solubility (mole fraction),"in DMF, 308.15 K",0.171
same,solubility (mole fraction),"in DMF, 313.15 K",0.186
same,solubility (mole fraction),"in DMF, 318.15 K",0.208
same,solubility (mole fraction),"in DMF, 323.15 K",0.23
same,solubility (mole fraction),"in NMP, 278.15 K",0.112
same,solubility (mole fraction),"in NMP, 283.15 K",0.126
same,solubility (mole fraction),"in NMP, 288.15 K",0.14
same,solubility (mole fraction),"in NMP, 293.15 K",0.156
same,solubility (mole fraction),"in NMP, 298.15 K",0.172
same,solubility (mole fraction),"in NMP, 303.15 K",0.19
same,solubility (mole fraction),"in NMP, 308.15 K",0.209
same,solubility (mole fraction),"in NMP, 313.15 K",0.225
same,solubility (mole fraction),"in NMP, 318.15 K",0.245
same,solubility (mole fraction),"in NMP, 323.15 K",0.265
same,solubility (mole fraction),"in acetone, 278.15 K",0.0395
same,solubility (mole fraction),"in acetone, 283.15 K",0.0475
same,solubility (mole fraction),"in acetone, 288.15 K",0.0559
same,solubility (mole fraction),"in acetone, 293.15 K",0.0658
same,solubility (mole fraction),"in acetone, 298.15 K",0.0776
same,solubility (mole fraction),"in acetone, 303.15 K",0.0897
same,solubility (mole fraction),"in acetone, 308.15 K",0.106
same,solubility (mole fraction),"in acetone, 313.15 K",0.121
same,solubility (mole fraction),"in acetone, 318.15 K",0.138
same,solubility (mole fraction),"in acetone, 323.15 K",0.155
same,solubility (mole fraction),"in ethanol, 278.15 K",0.00216
same,solubility (mole fraction),"in ethanol, 283.15 K",0.00264
same,solubility (mole fraction),"in ethanol, 288.15 K",0.00354
same,solubility (mole fraction),"in ethanol, 293.15 K",0.00441
same,solubility (mole fraction),"in ethanol, 298.15 K",0.0056
same,solubility (mole fraction),"in ethanol, 303.15 K",0.00699
same,solubility (mole fraction),"in ethanol, 308.15 K",0.00872
same,solubility (mole fraction),"in ethanol, 313.15 K",0.0109
same,solubility (mole fraction),"in ethanol, 318.15 K",0.0135
same,solubility (mole fraction),"in ethanol, 323.15 K",0.0168
same,solubility (mole fraction),"in ethyl acetate, 278.15 K",0.0293
same,solubility (mole fraction),"in ethyl acetate, 283.15 K",0.0338
same,solubility (mole fraction),"in ethyl acetate, 288.15 K",0.0413
same,solubility (mole fraction),"in ethyl acetate, 293.15 K",0.0484
same,solubility (mole fraction),"in ethyl acetate, 298.15 K",0.0535
same,solubility (mole fraction),"in ethyl acetate, 303.15 K",0.0632
same,solubility (mole fraction),"in ethyl acetate, 308.15 K",0.0737
same,solubility (mole fraction),"in ethyl acetate, 313.15 K",0.0838
same,solubility (mole fraction),"in ethyl acetate, 318.15 K",0.0969
same,solubility (mole fraction),"in ethyl acetate, 323.15 K",0.11
same,solubility (mole fraction),"in isobutyl acetate, 278.15 K",0.0199
same,solubility (mole fraction),"in isobutyl acetate, 283.15 K",0.0236
same,solubility (mole fraction),"in isobutyl acetate, 288.15 K",0.0284
same,solubility (mole fraction),"in isobutyl acetate, 293.15 K",0.0341
same,solubility (mole fraction),"in isobutyl acetate, 298.15 K",0.0396
same,solubility (mole fraction),"in isobutyl acetate, 303.15 K",0.0468
same,solubility (mole fraction),"in isobutyl acetate, 308.15 K",0.0552
same,solubility (mole fraction),"in isobutyl acetate, 313.15 K",0.0636
same,solubility (mole fraction),"in isobutyl acetate, 318.15 K",0.0741
same,solubility (mole fraction),"in isobutyl acetate, 323.15 K",0.0848
same,solubility (mole fraction),"in isopropyl acetate, 278.15 K",0.021
same,solubility (mole fraction),"in isopropyl acetate, 283.15 K",0.0258
same,solubility (mole fraction),"in isopropyl acetate, 288.15 K",0.03
same,solubility (mole fraction),"in isopropyl acetate, 293.15 K",0.0357
same,solubility (mole fraction),"in isopropyl acetate, 298.15 K",0.0417
same,solubility (mole fraction),"in isopropyl acetate, 303.15 K",0.0489
same,solubility (mole fraction),"in isopropyl acetate, 308.15 K",0.0569
same,solubility (mole fraction),"in isopropyl acetate, 313.15 K",0.0661
same,solubility (mole fraction),"in isopropyl acetate, 318.15 K",0.0768
same,solubility (mole fraction),"in isopropyl acetate, 323.15 K",0.0878
same,solubility (mole fraction),"in methanol, 278.15 K",0.00403
same,solubility (mole fraction),"in methanol, 283.15 K",0.00504
same,solubility (mole fraction),"in methanol, 288.15 K",0.00635
same,solubility (mole fraction),"in methanol, 293.15 K",0.00781
same,solubility (mole fraction),"in methanol, 298.15 K",0.0101
same,solubility (mole fraction),"in methanol, 303.15 K",0.0126
same,solubility (mole fraction),"in methanol, 308.15 K",0.0157
same,solubility (mole fraction),"in methanol, 313.15 K",0.0201
same,solubility (mole fraction),"in methanol, 318.15 K",0.0246
same,solubility (mole fraction),"in methanol, 323.15 K",0.0311
same,solubility (mole fraction),"in methyl acetate, 278.15 K",0.0358
same,solubility (mole fraction),"in methyl acetate, 283.15 K",0.0425
same,solubility (mole fraction),"in methyl acetate, 288.15 K",0.0485
same,solubility (mole fraction),"in methyl acetate, 293.15 K",0.0562
same,solubility (mole fraction),"in methyl acetate, 298.15 K",0.0644
same,solubility (mole fraction),"in methyl acetate, 303.15 K",0.0754
same,solubility (mole fraction),"in methyl acetate, 308.15 K",0.0851
same,solubility (mole fraction),"in methyl acetate, 313.15 K",0.0973
same,solubility (mole fraction),"in methyl acetate, 318.15 K",0.11
same,solubility (mole fraction),"in methyl acetate, 323.15 K",0.125
same,solubility (mole fraction),"in n-butyl acetate, 278.15 K",0.0216
same,solubility (mole fraction),"in n-butyl acetate, 283.15 K",0.0259
same,solubility (mole fraction),"in n-butyl acetate, 288.15 K",0.031
same,solubility (mole fraction),"in n-butyl acetate, 293.15 K",0.0367
same,solubility (mole fraction),"in n-butyl acetate, 298.15 K",0.0428
same,solubility (mole fraction),"in n-butyl acetate, 303.15 K",0.0505
same,solubility (mole fraction),"in n-butyl acetate, 308.15 K",0.0587
same,solubility (mole fraction),"in n-butyl acetate, 313.15 K",0.0683
same,solubility (mole fraction),"in n-butyl acetate, 318.15 K",0.0788
same,solubility (mole fraction),"in n-butyl acetate, 323.15 K",0.0908
same,solubility (mole fraction),"in n-pentyl acetate, 278.15 K",0.0192
same,solubility (mole fraction),"in n-pentyl acetate, 283.15 K",0.0231
same,solubility (mole fraction),"in n-pentyl acetate, 288.15 K",0.0276
same,solubility (mole fraction),"in n-pentyl acetate, 293.15 K",0.0327
same,solubility (mole fraction),"in n-pentyl acetate, 298.15 K",0.0388
same,solubility (mole fraction),"in n-pentyl acetate, 303.15 K",0.0455
same,solubility (mole fraction),"in n-pentyl acetate, 308.15 K",0.0535
same,solubility (mole fraction),"in n-pentyl acetate, 313.15 K",0.0626
same,solubility (mole fraction),"in n-pentyl acetate, 318.15 K",0.0726
same,solubility (mole fraction),"in n-pentyl acetate, 323.15 K",0.0837
same,solubility (mole fraction),"in n-propyl acetate, 278.15 K",0.0249
same,solubility (mole fraction),"in n-propyl acetate, 283.15 K",0.0303
same,solubility (mole fraction),"in n-propyl acetate, 288.15 K",0.0357
same,solubility (mole fraction),"in n-propyl acetate, 293.15 K",0.0414
same,solubility (mole fraction),"in n-propyl acetate, 298.15 K",0.0486
same,solubility (mole fraction),"in n-propyl acetate, 303.15 K",0.0565
same,solubility (mole fraction),"in n-propyl acetate, 308.15 K",0.0661
same,solubility (mole fraction),"in n-propyl acetate, 313.15 K",0.0761
same,solubility (mole fraction),"in n-propyl acetate, 318.15 K",0.0878
same,solubility (mole fraction),"in n-propyl acetate, 323.15 K",0.101
